Source: patent publication EP0091755A1, “Penicillin derivatives, a process for their preparation and compositions containing them” (BEECHAM GROUP PLC, priority 1982, dated 1983)
Like-named read-outs stand apart in the source and are kept apart here.

How the values were obtained:
Type in all cases: cell-based
Klebsiella aerogenes A = assay: Antibacterial activity (MIC) against Klebsiella aerogenes A
Staph. aureus Oxford = assay: Antibacterial activity (MIC) against Staph. aureus Oxford; conditions: Staphylococcus aureus
P mirabilis C977 = assay: Antibacterial activity (MIC) against P mirabilis C977
Ps aeruginosa 10662 = assay: Antibacterial activity (MIC) against Ps aeruginosa 10662
E Coli JT 425 = assay: Antibacterial activity (MIC) against E Coli JT 425
[1] = Klebsiella aerogenes A, example, read-out: Antibacterial activity (MIC)
[2] = Staph. aureus Oxford, example, read-out: Antibacterial activity (MIC)
[3] = P mirabilis C977, example, read-out: Antibacterial activity (MIC)
[4] = Ps aeruginosa 10662, example, read-out: Antibacterial activity (MIC)
[5] = Klebsiella Aerogenes A, table, read-out: Antibacterial activities (MIC)
[6] = Escherichia coli, E. Coli JT 425, table, read-out: Antibacterial activities (MIC)
[7] = Staph Aureus Oxford, table, read-out: Antibacterial activities (MIC)
[8] = Proteus mirabilis, P. Mirabilis C977, table, read-out: Antibacterial activities (MIC)
[9] = Pseudomonas aeruginosa, Ps. Aeruginosa 10662, table, read-out: Antibacterial activities (MIC)

CO[C@@]1(NC(=O)[C@H](NC(=O)Nc2cnc(Nc3ccc(S(N)(=O)=O)cc3)nc2O)c2ccccc2)C(=O)N2[C@@H](C(=O)O)C(C)(C)S[C@@H]21 [Example 1, Sodium 6,β-(D-2-[3-[2-(4-aminosulphonylphenylamino)-4-hydroxypyrimidin-5-yl]ureido]-2-phenylacetamido] -6,a-methoxypenicillanate]
MIC (Klebsiella aerogenes A; [1]): 2.5 µg/mL
MIC (Staph. aureus Oxford; [2]): 10 µg/mL
MIC (P mirabilis C977; [3]): 2.5 µg/mL
MIC (Ps aeruginosa 10662; [4]): 50 µg/mL

CO[C@@]1(NC(=O)[C@H](NC(=O)Nc2cnc(Nc3ccc(S(N)(=O)=O)cc3)nc2O)c2ccc(O)cc2)C(=O)N2[C@@H](C(=O)O)C(C)(C)S[C@@H]21 [Example 3, Sodium 6,β-[D-2-[3-[2-(4-aminosulphonylphenylamino)-4-hydroxypyrimidin-5-yl]ureido]-2-(4-hydroxyphenyl)acetamido]-6,a-methoxypenicillanate]
MIC (Klebsiella aerogenes A; [1]): 0.2 µg/mL
MIC (E Coli JT 425; E Coli JT 425, example, read-out: Antibacterial activity (MIC)): 2.5 µg/mL
MIC (Staph. aureus Oxford; [2]): 50 µg/mL
MIC (P mirabilis C977; [3]): 1.25 µg/mL
MIC (Ps aeruginosa 10662; [4]): 25 µg/mL

CO[C@@]1(NC(=O)[C@H](NC(=O)Nc2cnc(Nc3ccc(S(N)(=O)=O)cc3)nc2O)c2cccs2)C(=O)N2[C@@H](C(=O)O)C(C)(C)S[C@@H]21 [Example 4, Sodium 6β-[D-2-[3-[2-(4-aminosulphonylphenylamino)-4-hydroxypyrimidin-5-yl]ureido]-2-(thien-2-yl)acetamido]-6,a-methoxypenicillanate.]
MIC (Klebsiella aerogenes A; [5]): 0.2 µg/mL
MIC (E Coli JT 425; [6]): 1 µg/mL
MIC (Staph. aureus Oxford; [7]): 10 µg/mL
MIC (P mirabilis C977; [8]): 1 µg/mL
MIC (Ps aeruginosa 10662; [9]): 10 µg/mL

CO[C@@]1(NC(=O)[C@@H](NC(=O)Nc2cnc(Nc3ccc(S(N)(=O)=O)cc3)nc2O)c2cccs2)C(=O)N2[C@@H](C(=O)O)C(C)(C)S[C@@H]21 [Example 5, Sodium 6,β-[L-2-[3-[2-(4 aminosulphonylphenylamino)-4-hydroxy-pyrimidin-5-yl]ureido]-2-thien-2-y-)acetamido]-6α methoxypenicillanate]
MIC (Klebsiella aerogenes A; [5]): 1 µg/mL
MIC (E Coli JT 425; [6]): 2.5 µg/mL
MIC (Staph. aureus Oxford; [7]): 25 µg/mL
MIC (P mirabilis C977; [8]): 2.5 µg/mL
MIC (Ps aeruginosa 10662; [9]): 50 µg/mL

CO[C@@]1(NC(=O)C(NC(=O)Nc2cnc(Nc3ccc(S(N)(=O)=O)cc3)nc2O)c2ccco2)C(=O)N2[C@@H](C(=O)O)C(C)(C)S[C@@H]21 (stereo partly drawn) [Example 6, Sodium 6,β-[D,L-2-[3-[2-(4-aminosulphonylphenylamino), -4-hydroxypyrimidin-5-yl]-ureido]-2-(furan-2-yl)acetamido]-6,a-methoxy penicillanate]
MIC (Klebsiella aerogenes A; [5]): 0.12 µg/mL
MIC (E Coli JT 425; [6]): 8 µg/mL
MIC (Staph. aureus Oxford; [7]): 16 µg/mL
MIC (P mirabilis C977; [8]): 2 µg/mL
MIC (Ps aeruginosa 10662; [9]): 32 µg/mL

CO[C@@]1(NC(=O)C(NC(=O)Nc2cnc(Nc3ccc(S(N)(=O)=O)cc3)nc2O)c2ccccc2F)C(=O)N2[C@@H](C(=O)O)C(C)(C)S[C@@H]21 (stereo partly drawn) [Example 7, Sodium 6,B-[D,L-2-[3-[2-(4-aminosulphonylphenylamino) -4-hydroxypyrimidin-5-yl]ureido]-2-(2-fluorophenyl)acetamido]-6,a-methoxypenicillanate]
MIC (Klebsiella aerogenes A; [5]): 0.25 µg/mL
MIC (E Coli JT 425; [6]): 1 µg/mL
MIC (Staph. aureus Oxford; [7]): 16 µg/mL
MIC (P mirabilis C977; [8]): 1 µg/mL
MIC (Ps aeruginosa 10662; [9]): 16 µg/mL

CO[C@@]1(NC(=O)C(NC(=O)Nc2cnc(Nc3ccc(S(N)(=O)=O)cc3)nc2O)c2ccc(F)cc2)C(=O)N2[C@@H](C(=O)O)C(C)(C)S[C@@H]21 (stereo partly drawn) [Example 8, Sodium 6,B-[D,L-2-[3-[2-(4-aminosulphonylphenylamino)-4-hydroxy-pyrimidin-5-yl]ureido]-2-(4-fluorophenyl)-acetamido]-6,a-methoxypenicillanic.]
MIC (Klebsiella aerogenes A; [5]): 8 µg/mL
MIC (E Coli JT 425; [6]): 16 µg/mL
MIC (Staph. aureus Oxford; [7]): 64 µg/mL
MIC (P mirabilis C977; [8]): 8 µg/mL
MIC (Ps aeruginosa 10662; [9]): 128 µg/mL

CO[C@@]1(NC(=O)C(NC(=O)Nc2cnc(Nc3ccc(S(N)(=O)=O)cc3)nc2O)c2ccc(OC(C)=O)c(OC(C)=O)c2)C(=O)N2[C@@H](C(=O)O)C(C)(C)S[C@@H]21 (stereo partly drawn) [Example 9, Sodium 6,B-[D,L-2-[3-[2-(4-aminosulphonylphenylamino)-4-hydroxypyrimidin-5-yl]ureido]-2-(3,4-diacetoxyphenyl)acetamido]-6,a-methoxypenicillanate]
MIC (Klebsiella aerogenes A; [5]): < 0.06 µg/mL
MIC (E Coli JT 425; [6]): 1 µg/mL
MIC (Staph. aureus Oxford; [7]): < 128 µg/mL
MIC (P mirabilis C977; [8]): 2 µg/mL
MIC (Ps aeruginosa 10662; [9]): 1 µg/mL
